Holding throughout (assay type): cell-based
The test system of test [1] is cleaved PARP in cancer cells harboring mtRAS. Nature of the test: Western blot, cleaved PARP in cancer cells harboring mtRAS. The following applies: 1 μM, 24 h. As for the experimental part:
Approximately 1 × 10^6 cells per well were seeded in a 6-well cell culture plate. After cell adhesion, each compounds were treated for 2 h with indicated concentration and conducted brief washing twice by ice-cold PBS. Cells were lysed by NP40 buffer (50 mM Tris–HCl pH 7.4, 1% NP40, 2 mM EDTA, 150 mM NaCl) in the presence of protease inhibitor cocktail (Roche, #11873580001) and phosphatase inhibitor cocktail (Roche, #04906837001). Each sample was loaded with same amount of total protein and separated by SDS-PAGE gel. After transferred to nitrocellulose membrane, blocking with 5% skim milk (in TBS/T) was followed. […] Chemiluminescence signals were detected by ImageQuant™ LAS 4000 (GE Healthcare).
Figure 4 The effects of (A) SIJ1795 and (B) SIJ1772 on apoptosis induction in cancer cells harboring mtRAS. […] (C) Apoptotic cell population (annexin V-positive) was determined by flow cytometry analysis (n = 3). […] Statistical significance was determined using a one-way ANOVA analysis (*p < 0.05, **p < 0.01, ***p < 0.001).
(A western blot detects proteins with antibodies after separation by electrophoresis.)

Test [2] concerns cancer cells harboring mtRAS. The experiment in a line: Flow cytometry apoptosis analysis (annexin V/PI), cancer cells harboring mtRAS. Particulars: 1 μM, 24 h. The protocol: For apoptosis analysis, cells (1 × 10^6 cells per sample) were incubated with each compounds for 24 h. Cells were subjected to brief ice-cold PBS washing and subjected to staining with Alexafluor488-conjugated annexin V (Thermo Fisher, A13201), and propidium iodide (PI, Thermo Fisher, P3560). Thereafter, apoptotic cells were classified by FACS Accuri™ C6 Plus (BD Biosciences). Debris and unstained cells and were excluded by gating.
Figure 4 The effects of (A) SIJ1795 and (B) SIJ1772 on apoptosis induction in cancer cells harboring mtRAS. Cells were treated with 0.1 and 1 μM of SIJ1795 SIJ1772, and GNF-7 for 24 h. Western blot analysis was conducted to evaluate the cleaved PARP and level. GAPDH was used as a loading control. (C) Apoptotic cell population (annexin V-positive) was determined by flow cytometry analysis (n = 3). Cells were treated with 1 μM of indicated compounds for 24 h. Statistical significance was determined using a one-way ANOVA analysis (*p < 0.05, **p < 0.01, ***p < 0.001).
(In general: A flow cytometer gives signals particle by particle.)

Test [3] has as its system cancer cells harboring mtRAS. Nature of the test: Soft agar assay (3D clonogenic assay). Particulars: 0.1 μM, 14 days. The protocol:
Soft agar assay was conducted for 3D clonogenic assay. On the 0.7% bottom agar, cells were seeded in 6-well plate (5 × 10^3 cells/well) with 0.35% low melting agar (Lonza, #50101) containing the complete media. The cells were treated with indicated compounds for 14 days at 37°C. Colonies were stained by iodonitrotetrazolium chloride (Sigma-Aldrich, I8377) for overnight. The total area of each well was observed without magnification, and the number of colonies of each well were determined using ImageJ software (n = 3).
Figure 8 (A–F) Soft agar assay results for evaluating the effect of SIJ1795 and SIJ1772 on anchorage independent growth abilities on cancer cells harboring mtRAS. Cells were incubated with indicated compounds (0.01 µM or 0.1 µM) for 14 days. After staining with crystal violet, colonies were photographed without magnification. (G–L) Number of colonies (% of control) upon treatment with indicated compounds at 0.1 µM concentration were determined by ImageJ (n = 3, respectively). Statistical significance was calculated by a one-way ANOVA analysis (*p < 0.05, **p < 0.01, ***p < 0.001, ****p < 0.0001).

On to `CCN1CCN(c2cccc(Nc3ncc4c(n3)N(C)C(=O)N(c3cc(NC(=O)c5cccc(C(F)(F)F)c5)ccc3C)C4)c2)CC1` [SIJ1795, N-(3-(7-((3-(4-Ethylpiperazin-1-yl)phenyl)amino)-1-methyl-2-oxo-1,4-dihydropyrimido[4,5-d]pyrimidin-3(2H)-yl)-4-methylphenyl)-3-(trifluoromethyl)benzamide], for which the “level of cleaved PARP in cancer cells harboring mtRAS” value in test [1] is on record as “notably increased”. Also, the “apoptosis against cancer cells harboring mtRAS (annexin V/PI)” value in test [2] is reported as “induced apoptosis”. For the same molecule, the “anchorage independent cell growth” value in test [3] is “suppressed”.

As for `Cc1ccc(NC(=O)c2cccc(C(F)(F)F)c2)cc1N1Cc2cnc(Nc3cnn(C4CCN(S(C)(=O)=O)CC4)c3)nc2N(C)C1=O` [SIJ1772, N-(4-Methyl-3-(1-methyl-7-((1-(1-(methylsulfonyl)piperidin-4-yl)-1H-pyrazol-4-yl)amino)-2-oxo-1,4-dihydropyrimido[4,5-d]pyrimidin-3(2H)-yl)phenyl)-3-(trifluoromethyl)benzamide], the “level of cleaved PARP in cancer cells harboring mtRAS” value in test [1] is on record as “notably increased”. In test [2], the “apoptosis against cancer cells harboring mtRAS (annexin V/PI)” value is on record as “induced apoptosis”. The “anchorage independent cell growth” value in test [3] was “suppressed”.

The record behind these values is publication PMC8695447, “Novel Small Molecules Capable of Blocking mtRAS-Signaling Pathway” (Frontiers in Oncology, 2021).
